We go through 22 molecules from patent US9200005B2, “Inhibitor compounds of phosphodiesterase type 10A” (AbbVie Deutschland GmbH & Co. KG, priority 2013, dated 2015).

In one series the target is PDE10A (UniProt Q9Y233). Briefly: Measurement of PDE activity (HTRF cAMP kit, recombinant PDE10A). Format: biochemical, human, rat and mouse. Conditions: substrate 20 nM, 60 minutes at 29° C. On the procedure:
a) Measurement of PDE Activity
The recombinant PDE proteins are used in in vitro enzymatic reaction for measurement of PDE activity. These recombinant proteins, including PDE10A (human, rat and mouse PDE10) and isoforms of PDEs 1, 3, 4, and 5, were purchased from commercial vendor BPS Bioscience. The enzymatic activity of PDEs was determined by cAMP measurement kit from CisBio (IBA) using HTRF technology.
The PDE enzymatic reaction was carried out in assay buffer (20 mM Tris-HCl pH 7.5, 10 mM MgCl2, 0.1% bovine serum albumin) containing enzyme and substrate. […] The substrate cyclic nucleotide (cAMP or cGMP) concentration used in the assay was 20 nM for PDE10, and 100 nM for other PDEs. The inhibitory effect of compound was determined by incubating various concentration of inhibitor in the enzymatic assay. […] Next, the compound at varying concentration was mixed with PDE enzyme. The reaction was initiated by addition of cyclic nucleotide substrate, and incubated for 60 minutes at 29° C. The reaction was stopped by addition of lysis buffer from the assay kit. The cAMP-d2 and anti-cAMP cryptate in the lysis buffer detected the level of cAMP left from the PDE hydrolysis reaction. […] Thus, IC50 value of inhibitor can be obtained by plotting inhibitor concentration against PDE activity at that concentration.
In general terms: In TR-FRET formats the signal depends on donor and acceptor labels being close together.

A short description of series [1]: Determination of the microsomal half-life / microsomal clearance, rat liver microsomes. In kind it is in vitro ADME. Conditions: 0.5 μM test substance, 0.25 mg of microsomal protein/mL, NADPH, 37° C. The procedure, abridged:
(§1)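 Compound (0.5 μM) was preincubated 5 min at 37 °C with rat or human liver microsomes (0.25 mg protein/mL) in 0.05 M phosphate pH 7.4, and NADPH (1 mg/mL) was then added. Samples taken at 0-30 min and quenched with acetonitrile were analysed by MS/MS. T½ was derived assuming first-order decay, and clearance […] was calculated from T½ and protein content.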
In general terms: Liver microsomes are vesicles of endoplasmic reticulum, rich in cytochrome P450 enzymes.

Series [2] is described as follows: Determination of the microsomal half-life / microsomal clearance, human liver microsomes. In kind it is in vitro ADME. Conditions: 0.5 μM test substance, 0.25 mg of microsomal protein/mL, NADPH, 37° C. The procedure, abridged: as §1

A word on the IC50: it is the concentration needed to halve the response being measured. As for `Cn1nc(OCc2cccc(OC(F)F)c2)c2scc(-c3ccncc3)c2c1=O` [Example 76, 7-{[3-(difluoromethoxy)benzyl]oxy}-5-methyl-3-(pyridin-4-yl)thieno[2,3-d]pyridazin-4(5H)-one], the IC50 on PDE10A is under 0.1 µM. In addition, the “Rat mCl” value in series [1] is “++ (++: <100 μl min^−1 mg^−1)”. Besides, the “Human mCl” value in series [2] is on record as “++ (++: <100 μl min^−1 mg^−1)”.
Consider `Cn1nc(OCc2cccc3ccoc23)c2scc(-c3ccncc3)c2c1=O` [Example 64, 7-(1-benzofuran-7-ylmethoxy)-5-methyl-3-(pyridin-4-yl)thieno[2,3-d]pyridazin-4(5H)-one], for which the half-inhibitory concentration (IC50) at PDE10A lay in the range of 0.1 to 0.2 µM. Further, the “Rat mCl” value in series [1] was “++ (++: <100 μl min^−1 mg^−1)”. In addition, the “Human mCl” value in series [2] is “++ (++: <100 μl min^−1 mg^−1)”.
As to `Cn1nc(OCc2ccco2)c2scc(-c3ccncc3)c2c1=O` [Example 52, 7-(furan-2-ylmethoxy)-5-methyl-3-(pyridin-4-yl)thieno[2,3-d]pyridazin-4(5H)-one], on PDE10A, the half-maximal inhibitory concentration (IC50) was in the range of 0.1 to 0.2 µM. Besides, in series [1], the “Rat mCl” value is “+ (+: 100-220 μl min^−1 mg^−1)”. Besides, in series [2], the “Human mCl” value is given as “++ (++: <100 μl min^−1 mg^−1)”.
On the same counts, the results for `CC(C)Oc1cccc(COc2nn(C)c(=O)c3c(-c4ccncc4)csc23)c1` [Example 73, 5-methyl-7-{[3-(propan-2-yloxy)benzyl]oxy}-3-(pyridin-4-yl)thieno[2,3-d]pyridazin-4(5H)-one] are 0.2 to 0.5 µM, “++ (++: <100 μl min^−1 mg^−1)” and “++ (++: <100 μl min^−1 mg^−1)”.
On the same counts, the results for `O=c1c2c(-c3cncnc3)csc2c(-c2ccncc2)nn1CC1CC1` [Example 146, 5-(cyclopropylmethyl)-7-(pyridin-4-yl)-3-(pyrimidin-5-yl)thieno[2,3-d]pyridazin-4(5H)-one] are under 0.1 µM, “++ (++: <100 μl min^−1 mg^−1)” and “++ (++: <100 μl min^−1 mg^−1)”.
For the molecule `Cn1nc(OCc2ccc3c(c2)OCO3)c2scc(-c3ccncc3)c2c1=O` [Example 69, 7-(1,3-benzodioxol-5-ylmethoxy)-5-methyl-3-(pyridin-4-yl)thieno[2,3-d]pyridazin-4(5H)-one], on PDE10A, the 50% inhibitory concentration (IC50) was 0.1 to 0.2 µM. In series [1], the “Rat mCl” value is “+ (+: 100-220 μl min^−1 mg^−1)”. Besides, the “Human mCl” value in series [2] was “++ (++: <100 μl min^−1 mg^−1)”.
On the same counts, the results for `CCCn1nc(-c2ccncc2)c2scc(-c3ccncc3)c2c1=O` [Example 139, 5-propyl-3,7-di(pyridin-4-yl)thieno[2,3-d]pyridazin-4(5H)-one] are 0.1 to 0.2 µM, “++ (++: <100 μl min^−1 mg^−1)” and “+ (+: 100-220 μl min^−1 mg^−1)”.
On the same counts, the results for `CC(Oc1nn(C)c(=O)c2c(-c3ccncc3)csc12)c1nc2ccccc2n1C` (stereo not drawn) [Example 78, 5-methyl-7-[1-(1-methyl-1H-benzimidazol-2-yl)ethoxy]-3-(pyridin-4-yl)thieno[2,3-d]pyridazin-4(5H)-one] are under 0.1 µM, “+ (+: 100-220 μl min^−1 mg^−1)” and “++ (++: <100 μl min^−1 mg^−1)”.
Take `Cn1nc(OCc2ccccc2)c2scc(-c3ccncc3)c2c1=O` [Example 54, 7-(benzyloxy)-5-methyl-3-(pyridin-4-yl)thieno[2,3-d]pyridazin-4(5H)-one]: the half-maximal inhibitory concentration (IC50) on PDE10A was in the range of 0.1 to 0.2 µM. Moreover, in series [1], the “Rat mCl” value is “+ (+: 100-220 μl min^−1 mg^−1)”. The “Human mCl” value in series [2] was “++ (++: <100 μl min^−1 mg^−1)”.
The like results for `Cn1nc(-c2ccc3c(c2)OCO3)c2scc(-c3ccncc3)c2c1=O` [Example 124, 7-(1,3-benzodioxol-5-yl)-5-methyl-3-(pyridin-4-yl)thieno[2,3-d]pyridazin-4(5H)-one] were, in that order, 0.2 to 0.5 µM, “+ (+: 100-220 μl min^−1 mg^−1)” and “+ (+: 100-220 μl min^−1 mg^−1)”.
`Cn1nc(Oc2ccccc2C#N)c2scc(-c3ccncc3)c2c1=O.O=C(O)C(F)(F)F` [Example 83, 2-{[5-methyl-4-oxo-3-(pyridin-4-yl)-4,5-dihydrothieno[2,3-d]pyridazin-7-yl]oxy}benzonitrile trifluoroacetate]: the IC50 at PDE10A was in the range of 0.1 to 0.2 µM. Moreover, in series [1], the “Rat mCl” value is given as “++ (++: <100 μl min^−1 mg^−1)”. Moreover, the “Human mCl” value in series [2] is given as “+ (+: 100-220 μl min^−1 mg^−1)”.
On the same counts, the results for `Cn1nc(OCc2ccccn2)c2scc(-c3ccncc3)c2c1=O` [Example 55, 5-methyl-3-(pyridin-4-yl)-7-(pyridin-2-ylmethoxy)thieno[2,3-d]pyridazin-4(5H)-one] are 0.1 to 0.2 µM, “+ (+: 100-220 μl min^−1 mg^−1)” and “++ (++: <100 μl min^−1 mg^−1)”.
With `Cn1nc(-c2ccncc2)c2scc(NC3COC3)c2c1=O` [Example 2, 5-methyl-3-(oxetan-3-ylamino)-7-(pyridin-4-yl)thieno[2,3-d]pyridazin-4(5H)-one], the half-maximal inhibitory concentration (IC50) at PDE10A lay in the range of 0.2 to 0.5 µM. Besides, in series [1], the “Rat mCl” value is “+ (+: 100-220 μl min^−1 mg^−1)”. The “Human mCl” value in series [2] is given as “++ (++: <100 μl min^−1 mg^−1)”.
On to `COCCn1cc(-c2nn(C)c(=O)c3c(-c4ccncc4)csc23)cn1.O=C(O)C(F)(F)F.O=C(O)C(F)(F)F` [Example 99, 7-[1-(2-methoxyethyl)-1H-pyrazol-4-yl]-5-methyl-3-(pyridin-4-yl)thieno[2,3-d]pyridazin-4(5H)-one bis(trifluoroacetate)], for which the concentration for half-maximal inhibition (IC50) at PDE10A is under 0.1 µM. Also, in series [1], the “Rat mCl” value is listed as “++ (++: <100 μl min^−1 mg^−1)”. Further, the “Human mCl” value in series [2] was “++ (++: <100 μl min^−1 mg^−1)”.
Take `COc1cccc(-c2nn(C)c(=O)c3c(-c4ccncc4)csc23)c1` [Example 123, 7-(3-methoxyphenyl)-5-methyl-3-(pyridin-4-yl)thieno[2,3-d]pyridazin-4(5H)-one]: the half-maximal inhibitory concentration (IC50) at PDE10A is 0.1 to 0.2 µM. Besides, the “Rat mCl” value in series [1] was “∘ (∘ not avialable or >220 μl min^−1 mg^−1)”. The “Human mCl” value in series [2] is “+ (+: 100-220 μl min^−1 mg^−1)”.
On the same counts, the results for `Cn1nc(-c2ccc(C#N)cc2)c2scc(-c3ccncc3)c2c1=O` [Example 95, 4-[5-methyl-4-oxo-3-(pyridin-4-yl)-4,5-dihydrothieno[2,3-d]pyridazin-7-yl]benzonitrile] are under 0.1 µM, “++ (++: <100 μl min^−1 mg^−1)” and “++ (++: <100 μl min^−1 mg^−1)”.
The like results for “3-[4-oxo-7-(pyridin-4-yl)-5-(2,2,2-trifluoroethyl)-4,5-dihydrothieno[2,3-d]pyridazin-3-yl]benzonitrile [Example 127]” were, in that order, under 0.1 µM, “++ (++: <100 μl min^−1 mg^−1)” and “++ (++: <100 μl min^−1 mg^−1)”.
The like results for `Cn1nc(OCc2nccs2)c2scc(-c3ccncc3)c2c1=O` [Example 58, 5-methyl-3-(pyridin-4-yl)-7-(1,3-thiazol-2-ylmethoxy)thieno[2,3-d]pyridazin-4(5H)-one] were, in that order, under 0.1 µM, “++ (++: <100 μl min^−1 mg^−1)” and “++ (++: <100 μl min^−1 mg^−1)”.
On to `COc1cccc(COc2nn(C)c(=O)c3c(-c4ccncc4)csc23)c1` [Example 61, 7-[(3-methoxybenzyl)oxy]-5-methyl-3-(pyridin-4-yl)thieno[2,3-d]pyridazin-4(5H)-one], for which the IC50 at PDE10A is 0.1 to 0.2 µM. In series [1], the “Rat mCl” value is “+ (+: 100-220 μl min^−1 mg^−1)”. In addition, the “Human mCl” value in series [2] is on record as “++ (++: <100 μl min^−1 mg^−1)”.
In the case of `Cn1nc(OCc2cccnc2)c2scc(-c3ccncc3)c2c1=O` [Example 147, 5-methyl-3-(pyridin-4-yl)-7-(pyridin-3-ylmethoxy)thieno[2,3-d]pyridazin-4(5H)-one], the IC50 on PDE10A is under 0.1 µM. The “Rat mCl” value in series [1] is “+ (+: 100-220 μl min^−1 mg^−1)”. Also, the “Human mCl” value in series [2] was “+ (+: 100-220 μl min^−1 mg^−1)”.
As for `Cn1nc(OCc2cccc(C(N)=O)c2)c2scc(-c3ccncc3)c2c1=O.O=C(O)C(F)(F)F` [Example 67, 3-({[5-methyl-4-oxo-3-(pyridin-4-yl)-4,5-dihydrothieno[2,3-d]pyridazin-7-yl]oxy}methyl)benzamide trifluoroacetate], the IC50 on PDE10A is under 0.1 µM. For the same molecule, the “Rat mCl” value in series [1] is recorded as “++ (++: <100 μl min^−1 mg^−1)”. Also, the “Human mCl” value in series [2] is “++ (++: <100 μl min^−1 mg^−1)”.
For `COc1cc(OC)cc(Oc2nn(C)c(=O)c3c(-c4ccncc4)csc23)c1` [Example 92, 7-(3,5-dimethoxyphenoxy)-5-methyl-3-(pyridin-4-yl)thieno[2,3-d]pyridazin-4(5H)-one], on PDE10A, the half-maximal inhibitory concentration (IC50) is under 0.1 µM. In series [1], the “Rat mCl” value is listed as “++ (++: <100 μl min^−1 mg^−1)”. Also, the “Human mCl” value in series [2] is “+ (+: 100-220 μl min^−1 mg^−1)”.
